Columns and labels:
Experiment in all cases: biochemical
Assay type in all cases: binding
panel of 442 kinases [1] = target: T1, panel of 442 kinases (Homo sapiens, UniProt Q9NRM7); conditions: kinase LATS2; for remaining activity at 1 µM: read-out: % of control at 1 µM
T1 construct: purchased Ambit Biosciences (scanMAXX KINOMEscan)
T1 sequence (Q9NRM7 1-1088): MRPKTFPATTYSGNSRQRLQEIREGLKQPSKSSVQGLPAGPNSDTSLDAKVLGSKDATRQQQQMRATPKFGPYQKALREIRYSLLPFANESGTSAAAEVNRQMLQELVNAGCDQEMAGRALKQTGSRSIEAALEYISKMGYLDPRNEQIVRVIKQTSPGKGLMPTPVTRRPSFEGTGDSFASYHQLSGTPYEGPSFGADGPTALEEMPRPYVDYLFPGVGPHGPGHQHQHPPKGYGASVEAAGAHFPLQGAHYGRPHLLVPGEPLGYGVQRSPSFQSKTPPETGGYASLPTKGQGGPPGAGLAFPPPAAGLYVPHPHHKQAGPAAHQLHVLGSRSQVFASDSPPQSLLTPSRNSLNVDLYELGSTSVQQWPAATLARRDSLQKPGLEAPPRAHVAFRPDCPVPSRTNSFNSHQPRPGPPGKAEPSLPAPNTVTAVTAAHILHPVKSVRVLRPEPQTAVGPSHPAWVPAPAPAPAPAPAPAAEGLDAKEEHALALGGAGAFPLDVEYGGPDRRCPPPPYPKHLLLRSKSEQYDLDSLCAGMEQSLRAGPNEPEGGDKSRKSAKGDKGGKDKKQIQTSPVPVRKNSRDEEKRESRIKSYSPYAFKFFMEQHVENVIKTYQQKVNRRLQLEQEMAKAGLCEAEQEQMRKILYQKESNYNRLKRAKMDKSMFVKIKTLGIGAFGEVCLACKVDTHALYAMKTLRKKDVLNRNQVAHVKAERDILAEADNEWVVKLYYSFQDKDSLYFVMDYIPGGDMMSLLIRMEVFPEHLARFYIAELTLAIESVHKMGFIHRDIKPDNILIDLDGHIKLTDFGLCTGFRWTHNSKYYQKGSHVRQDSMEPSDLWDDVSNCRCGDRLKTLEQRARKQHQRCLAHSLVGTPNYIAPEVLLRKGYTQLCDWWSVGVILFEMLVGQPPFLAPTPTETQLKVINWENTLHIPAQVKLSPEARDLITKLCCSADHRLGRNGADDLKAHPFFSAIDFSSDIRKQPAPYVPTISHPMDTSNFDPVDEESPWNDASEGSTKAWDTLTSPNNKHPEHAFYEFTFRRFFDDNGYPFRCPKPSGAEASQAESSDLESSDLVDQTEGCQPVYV

panel of 442 kinases [2] = target: T2, panel of 442 kinases (Homo sapiens, UniProt Q9UM73); conditions: ALK; for remaining activity at 1 µM: read-out: % of control at 1 µM
T2 construct: purchased Ambit Biosciences (scanMAXX KINOMEscan)
T2 sequence (Q9UM73 19-1620): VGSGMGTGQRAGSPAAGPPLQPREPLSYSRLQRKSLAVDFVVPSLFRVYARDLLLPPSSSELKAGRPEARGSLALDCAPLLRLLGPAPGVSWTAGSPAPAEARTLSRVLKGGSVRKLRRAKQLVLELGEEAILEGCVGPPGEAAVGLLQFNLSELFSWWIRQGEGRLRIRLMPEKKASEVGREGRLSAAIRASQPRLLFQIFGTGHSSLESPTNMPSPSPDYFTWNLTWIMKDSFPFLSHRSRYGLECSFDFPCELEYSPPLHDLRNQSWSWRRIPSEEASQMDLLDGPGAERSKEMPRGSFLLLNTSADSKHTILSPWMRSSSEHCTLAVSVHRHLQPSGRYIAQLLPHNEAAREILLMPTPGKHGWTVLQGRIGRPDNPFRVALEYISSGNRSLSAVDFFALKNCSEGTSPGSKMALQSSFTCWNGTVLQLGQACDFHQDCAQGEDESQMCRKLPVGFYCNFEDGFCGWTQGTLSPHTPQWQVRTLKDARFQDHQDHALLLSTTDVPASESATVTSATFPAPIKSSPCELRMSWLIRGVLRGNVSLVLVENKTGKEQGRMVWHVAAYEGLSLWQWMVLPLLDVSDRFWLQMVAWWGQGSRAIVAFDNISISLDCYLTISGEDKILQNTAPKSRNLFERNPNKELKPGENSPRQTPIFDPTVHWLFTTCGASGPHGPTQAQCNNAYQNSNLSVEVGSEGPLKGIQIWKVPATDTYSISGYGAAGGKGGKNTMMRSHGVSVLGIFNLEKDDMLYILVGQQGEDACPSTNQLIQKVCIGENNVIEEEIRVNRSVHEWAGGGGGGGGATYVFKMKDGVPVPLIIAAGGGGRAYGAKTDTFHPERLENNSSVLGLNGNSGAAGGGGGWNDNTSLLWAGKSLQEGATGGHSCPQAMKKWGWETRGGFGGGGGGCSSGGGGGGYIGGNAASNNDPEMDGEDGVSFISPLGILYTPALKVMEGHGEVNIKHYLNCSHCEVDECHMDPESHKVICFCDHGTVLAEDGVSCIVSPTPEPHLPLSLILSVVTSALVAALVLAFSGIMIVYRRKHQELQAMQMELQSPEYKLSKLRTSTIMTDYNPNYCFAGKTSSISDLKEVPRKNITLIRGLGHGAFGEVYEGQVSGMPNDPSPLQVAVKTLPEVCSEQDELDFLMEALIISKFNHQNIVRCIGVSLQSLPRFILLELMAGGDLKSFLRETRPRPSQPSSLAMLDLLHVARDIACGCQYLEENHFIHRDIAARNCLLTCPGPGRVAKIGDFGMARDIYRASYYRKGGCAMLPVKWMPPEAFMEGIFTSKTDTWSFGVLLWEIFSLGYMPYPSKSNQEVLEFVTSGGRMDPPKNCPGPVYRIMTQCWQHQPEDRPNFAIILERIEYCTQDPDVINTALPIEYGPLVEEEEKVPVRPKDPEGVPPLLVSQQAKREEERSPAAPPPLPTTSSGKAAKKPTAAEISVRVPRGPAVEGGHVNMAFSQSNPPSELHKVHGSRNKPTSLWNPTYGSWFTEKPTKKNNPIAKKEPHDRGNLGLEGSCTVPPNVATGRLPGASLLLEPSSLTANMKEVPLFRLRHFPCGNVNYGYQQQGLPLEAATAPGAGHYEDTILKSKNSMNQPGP

panel of 442 kinases [3] = target: T3, panel of 442 kinases (Homo sapiens, UniProt Q13555); conditions: CAMK2G; for remaining activity at 1 µM: read-out: % of control at 1 µM
T3 construct: purchased Ambit Biosciences (scanMAXX KINOMEscan)
T3 sequence (Q13555 whole entry): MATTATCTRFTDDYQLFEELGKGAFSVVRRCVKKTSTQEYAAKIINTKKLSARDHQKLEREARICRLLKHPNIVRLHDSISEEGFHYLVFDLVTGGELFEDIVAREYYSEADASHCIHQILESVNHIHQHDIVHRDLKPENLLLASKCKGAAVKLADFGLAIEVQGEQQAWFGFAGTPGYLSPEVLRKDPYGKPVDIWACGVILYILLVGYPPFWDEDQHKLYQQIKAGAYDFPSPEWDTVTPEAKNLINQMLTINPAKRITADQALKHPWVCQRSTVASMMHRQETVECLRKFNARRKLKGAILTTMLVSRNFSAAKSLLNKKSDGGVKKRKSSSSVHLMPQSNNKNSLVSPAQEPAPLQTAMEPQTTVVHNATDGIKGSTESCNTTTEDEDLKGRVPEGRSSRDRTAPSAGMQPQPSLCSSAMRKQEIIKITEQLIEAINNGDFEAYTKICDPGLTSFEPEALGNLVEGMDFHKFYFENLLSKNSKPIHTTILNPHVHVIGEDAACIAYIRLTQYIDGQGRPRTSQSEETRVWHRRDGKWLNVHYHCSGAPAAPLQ

panel of 442 kinases [4] = target: T4, panel of 442 kinases (Homo sapiens, UniProt Q9Y616); conditions: kinase IRAK3; for remaining activity at 1 µM: read-out: % of control at 1 µM
T4 construct: purchased Ambit Biosciences (scanMAXX KINOMEscan)
T4 sequence (Q9Y616 1-596): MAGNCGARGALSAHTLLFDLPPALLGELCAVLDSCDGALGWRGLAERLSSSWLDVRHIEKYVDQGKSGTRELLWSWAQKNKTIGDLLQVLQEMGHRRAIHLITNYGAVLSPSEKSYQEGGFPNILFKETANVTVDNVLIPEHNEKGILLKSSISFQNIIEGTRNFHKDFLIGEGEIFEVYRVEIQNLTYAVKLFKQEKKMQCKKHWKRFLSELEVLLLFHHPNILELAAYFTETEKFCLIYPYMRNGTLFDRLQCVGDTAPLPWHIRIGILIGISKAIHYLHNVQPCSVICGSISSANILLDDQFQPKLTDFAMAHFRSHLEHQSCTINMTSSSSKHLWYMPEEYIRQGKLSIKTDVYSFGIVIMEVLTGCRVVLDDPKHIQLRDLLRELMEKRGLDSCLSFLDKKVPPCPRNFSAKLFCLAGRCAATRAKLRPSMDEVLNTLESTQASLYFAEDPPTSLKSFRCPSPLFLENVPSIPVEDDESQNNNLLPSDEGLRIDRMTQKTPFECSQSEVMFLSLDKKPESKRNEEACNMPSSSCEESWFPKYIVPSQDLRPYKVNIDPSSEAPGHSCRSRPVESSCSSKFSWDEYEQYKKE

panel of 442 kinases [5] = target: T5, panel of 442 kinases (Homo sapiens, UniProt P52564); conditions: kinase MEK6; for remaining activity at 1 µM: read-out: % of control at 1 µM
T5 construct: purchased Ambit Biosciences (scanMAXX KINOMEscan)
T5 sequence (P52564 1-334): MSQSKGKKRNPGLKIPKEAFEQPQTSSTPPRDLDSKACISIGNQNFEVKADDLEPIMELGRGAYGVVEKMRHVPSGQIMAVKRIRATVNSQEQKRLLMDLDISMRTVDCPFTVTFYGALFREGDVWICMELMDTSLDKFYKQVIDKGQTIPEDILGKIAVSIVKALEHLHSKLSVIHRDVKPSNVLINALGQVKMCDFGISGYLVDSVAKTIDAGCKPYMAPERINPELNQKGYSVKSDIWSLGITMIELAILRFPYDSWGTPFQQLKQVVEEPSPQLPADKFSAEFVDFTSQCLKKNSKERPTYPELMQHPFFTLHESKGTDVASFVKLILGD

panel of 442 kinases [6] = target: T6, panel of 442 kinases (Homo sapiens, UniProt O00238); conditions: BMPR1B; for remaining activity at 1 µM: read-out: % of control at 1 µM
T6 construct: purchased Ambit Biosciences (scanMAXX KINOMEscan)
T6 sequence (O00238 14-502): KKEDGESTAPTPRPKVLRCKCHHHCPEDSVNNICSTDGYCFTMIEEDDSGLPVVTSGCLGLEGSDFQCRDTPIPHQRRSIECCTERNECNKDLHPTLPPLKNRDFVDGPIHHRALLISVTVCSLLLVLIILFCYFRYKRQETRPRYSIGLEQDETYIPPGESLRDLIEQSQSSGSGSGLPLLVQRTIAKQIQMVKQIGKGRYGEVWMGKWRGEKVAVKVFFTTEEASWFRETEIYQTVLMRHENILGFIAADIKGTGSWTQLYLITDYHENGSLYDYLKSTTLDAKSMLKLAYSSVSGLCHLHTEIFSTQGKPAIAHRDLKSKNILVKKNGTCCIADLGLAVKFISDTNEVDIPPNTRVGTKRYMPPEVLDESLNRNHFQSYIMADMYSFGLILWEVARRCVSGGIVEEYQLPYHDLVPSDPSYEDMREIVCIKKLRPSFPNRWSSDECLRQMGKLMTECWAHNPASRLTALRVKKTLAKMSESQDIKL

panel of 442 kinases [7] = target: T7, panel of 442 kinases (Homo sapiens, UniProt Q8WTQ7); conditions: kinase GRK7; for remaining activity at 1 µM: read-out: % of control at 1 µM
T7 construct: purchased Ambit Biosciences (scanMAXX KINOMEscan)
T7 sequence (Q8WTQ7 1-553): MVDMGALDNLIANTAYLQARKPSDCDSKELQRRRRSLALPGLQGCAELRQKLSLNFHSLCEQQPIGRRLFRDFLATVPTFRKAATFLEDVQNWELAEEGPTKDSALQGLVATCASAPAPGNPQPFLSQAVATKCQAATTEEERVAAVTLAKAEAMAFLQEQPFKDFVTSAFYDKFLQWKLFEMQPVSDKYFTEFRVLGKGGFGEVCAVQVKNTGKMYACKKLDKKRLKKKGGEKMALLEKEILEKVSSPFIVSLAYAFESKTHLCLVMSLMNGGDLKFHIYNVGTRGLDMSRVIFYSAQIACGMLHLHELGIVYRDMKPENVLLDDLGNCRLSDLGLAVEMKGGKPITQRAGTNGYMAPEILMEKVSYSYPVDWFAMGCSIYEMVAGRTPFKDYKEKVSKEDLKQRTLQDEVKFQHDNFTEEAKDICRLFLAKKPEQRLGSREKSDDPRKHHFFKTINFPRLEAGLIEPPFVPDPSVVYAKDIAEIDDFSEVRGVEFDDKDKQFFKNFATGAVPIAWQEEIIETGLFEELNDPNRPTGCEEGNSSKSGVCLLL

[8] = 10 µM, read-out: % of control at 10 µM

Compound | remaining activity at 1 µM (panel of 442 kinases [1]) [%] | remaining activity at 10 µM (panel of 442 kinases [1]; [8]) [%] | remaining activity at 1 µM (panel of 442 kinases [2]) [%] | remaining activity at 10 µM (panel of 442 kinases [2]; [8]) [%] | remaining activity at 1 µM (panel of 442 kinases [3]) [%] | remaining activity at 10 µM (panel of 442 kinases [3]; [8]) [%] | remaining activity at 1 µM (panel of 442 kinases [4]) [%] | remaining activity at 10 µM (panel of 442 kinases [4]; [8]) [%] | remaining activity at 1 µM (panel of 442 kinases [5]) [%] | remaining activity at 10 µM (panel of 442 kinases [5]; [8]) [%] | remaining activity at 1 µM (panel of 442 kinases [6]) [%] | remaining activity at 10 µM (panel of 442 kinases [6]; [8]) [%] | remaining activity at 1 µM (panel of 442 kinases [7]) [%] | remaining activity at 10 µM (panel of 442 kinases [7]; [8]) [%]
Nc1cc(C(F)(F)F)c(-c2cc(N3CCOCC3)nc(N3CCOCC3)n2)cn1 [Buparlisib] | 75 | 100 | 100 | 100 | 100 | 100 | 95 | 96 | 90 | 85 | 100 | 100 | 77 | 100
Cn1c(=O)n(-c2ccc(C(C)(C)C#N)cc2)c2c3cc(-c4cnc5ccccc5c4)ccc3ncc21 [Dactolisib, 2-methyl-2-[4-(3-methyl-2-oxo-8-quinolin-3-yl-2,3-dihydroimidazo[4,5-c]quinolin-1-yl)-phenyl] propionitrile] | 100 |  | 72 |  | 88 |  | 50 |  | 96 |  | 91 |  | 92 | 
COc1ncc(-c2ccc3nccc(-c4ccnnc4)c3c2)cc1NS(=O)(=O)c1ccc(F)cc1F [Omipalisib] | 100 |  | 100 |  | 100 |  | 26 |  | 51 |  | 87 |  | 100 | 
FC(F)c1nc2ccccc2n1-c1nc(N2CCOCC2)nc(N2CCOCC2)n1 [ZSTK474, 2-(difluoromethyl)-1-[4,6-di(4-morpholinyl)-1,3,5-triazin-2-yl]-1H-benzimidazole] | 100 |  | 93 |  | 100 |  | 100 |  | 97 |  | 94 |  | 98 | 

From PMC5564600 (Oncotarget, 2017)
